The test system of one experiment is UptA:C55-P complex. Description: Native MS of UptA:C55-P complex in the presence of antibiotics. It is filed as binding, Bacillus subtilis. As to conditions: 2.5 µM UptA, 10 µM C55-P; for effect of antibiotic on UptA:C55-P complex (in words): 0 to 100 µM antibiotic, 75 V, mean of three independent replicates. Here is the method: (§1) Amphomycin and derivatives are known to kill bacteria by forming complexes with free C55-P ([46]), however, whether or not this involves a direct interaction with a protein cellular target is not known. We therefore investigated how amphomycin affects the UptA:C55-P complex. We recorded spectra for solutions containing 2.5 µM UptA, 10 µM C55-P and then equilibrated aliquots with increasing concentrations of amphomycin.
(A) Mass spectra (6+ charge state) for solutions containing 2.5 µM UptA and 10 µM C55-P incubated with 0 to 100 µM amphomycin. (B) Relative intensity of C55-P bound to UptA in the presence of amphomycin and daptomycin. The bar represents the mean of three independent replicates shown as data points and error bars are SD. […] (C) Fraction of C55-P bound to UptA in the presence of cell wall targeting antibiotics. Each sample contains 2.5 µM UptA, 10 µM C55-P and 100 µM of indicated antibiotic, and spectra were acquired using the same instrument settings and collisional activation of 75 V. The bar represents the mean of three independent replicates shown as data points, and the error bar represents SD. […]
(§2) Detailed experimental procedures are provided in SI Appendix. Briefly, UptA (wild type and mutants) was expressed in E. coli C43(DE3) cells (Lucigen) with GFP fusion on the C-terminus and solubilized from the membrane fraction by n-dodecyl-β-D-maltopyranoside (DDM). After purification by affinity chromatography, the GFP was cleaved by TEV protease and removed, and UptA was further purified by size-exclusion chromatography in a buffer containing 20 mM Tris-HCl (pH 8.0), 200 mM NaCl, 0.02% DDM. Before measurements, proteins were buffer-exchanged into 0.05% LDAO, 200 mM ammonium acetate at the desired pH using a centrifugal buffer exchange device (Micro Bio-Spin 6, Bio-Rad). Stock solutions of lipids were prepared from chloroform/methanol solution by evaporating aliquots of known volume in a SpeedVac. After drying, the lipid films were weighed and resuspended to a final concentration of 0.5 mM in 200 mM ammonium acetate and 0.05% LDAO by vertexing. Stock solutions of 0.5 mM amphomycin, aspartocin D, daptomycin, polymyxin B, polymyxin E, and bacitracin were made in the same buffer. All experiments were repeated three times from newly prepared stock solutions. Native mass spectrometry was performed on a Q-Exactive hybrid quadrupole-Orbitrap mass spectrometer (Thermo Fisher Scientific, Bremen, Germany), and lipid identification was performed on an Orbitrap Eclipse Tribrid mass spectrometer (Thermo). […]

Another experiment concerns the target UptA (Bacillus subtilis, UniProt O31823). As to the kind of experiment: Native MS of antibiotic binding to UptA. To be noted: 2.5 µM UptA, 10 µM C55-P, antibiotic up to 100 µM (polymyxins 100 µM), 0.05% LDAO, 200 mM ammonium acetate, 75 V. The method, then: We next investigate how UptA and its complex with C55-P interact with a range of cell-wall targeting antibiotics including the lipopeptides daptomycin and amphomycin. […] We investigated whether daptomycin affects C55-P binding to UptA by recording spectra for solutions containing 2.5 µM UptA, 10 µM C55-P, and different concentrations of daptomycin.
as §1
The amphiphilic nature of daptomycin and amphomycin raises the possibility that these lipopeptide antibiotics may promiscuously bind to UptA in a nonspecific manner. We probe this possibility by recording spectra for UptA:C55-P solutions in the presence of 100 µM polymyxin B and 100 µM polymyxin E. These polymyxins are membrane-disrupting lipopeptides that target the outer membrane lipopolysaccharides in Gram-negative bacteria ([47]) but without a known affinity for C55-P or UptA.
To this end, we prepared UptA:C55-P mixtures and then equilibrated aliquots with bacitracin and vancomycin.
as §2

For experiment [1] the following is noted: ref 46 (ref 23, 46, 60, 61); cited from earlier work. The text has this: To this end, we prepared UptA:C55-P mixtures and then equilibrated aliquots with bacitracin and vancomycin. […] In line with the specificity of bacitracin for C55-PP rather than C55-P, this antibiotic modestly ...
In experiment [2] the test system is B. subtilis strains bearing R112 and R118 mutations on UptA. To be noted: cited from earlier work. The text has this: Conserved arginine residues in the putative membrane reentrant loops of E. coli DedA proteins YqjA (R130) and YghB (R136) are important for the cellular role of these proteins ([36]). […] How these residues impact substrate interactions, however, is not known. […] Despite the combined cellular pool of C55-PP and C55-P being limited to ~1.5 × 10^5 molecules per cell ([56]), they mediate the transport of glycan-bearing components of the cell wall peptidoglycan, teichoic acid, and capsular polysaccharid ...

The conditions of experiment [3]: daptomycin ref 45; vancomycin ref 49, 50; cited from earlier work.

“Also recorded” adds a separate entry of the source.

Sequence of UptA (O31823 whole entry): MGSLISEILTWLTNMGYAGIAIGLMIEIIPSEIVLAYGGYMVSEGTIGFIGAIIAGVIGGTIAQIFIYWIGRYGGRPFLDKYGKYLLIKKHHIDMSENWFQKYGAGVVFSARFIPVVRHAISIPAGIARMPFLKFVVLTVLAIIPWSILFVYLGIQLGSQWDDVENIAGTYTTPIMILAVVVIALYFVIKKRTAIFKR

Turning to amphomycin, the “effect of antibiotic on UptA:C55-P complex (in words)” value in the experiment with UptA:C55-P complex was “peak intensities of the UptA:C55-P complex reduce with respect to an increase in the concentration of amphomycin; also recorded: induce dissociation of UptA:C55-P complexes; also recorded: bind directly to UptA and induce dissociation of the UptA:C55-P complex; also recorded: can directly inhibit UptA function by out-competing the substrate for the protein binding”; in the experiment with UptA:C55-P complex (listed as Amphomycin) it was “destabilizes the UptA:C55-P complex and sequesters C55-P”. In the experiment with UptA:C55-P complex (10-fold molar excess of amphomycin), the “UptA:C55-P complex remaining at 10-fold molar excess of antibiotic (in words)” value is reported as “little-to-no UptA:C55-P complexes remained”. Moreover, the “binding of antibiotic to UptA (in words)” value on UptA was “peaks consistent with amphomycin binding to UptA; also recorded: bind to UptA with higher affinity than other cell-wall targeting antimicrobial peptides such as bacitracin and vancomycin”. The “complex formation with free C55-P (in words)” value in experiment [1] is reported as “known propensity to form complexes with free C55-P molecules”. Further, the “susceptibility of B. subtilis cells with UptA R112 and R118 mutations (in words)” value in experiment [2] is given as “more susceptible to inhibition by amphomycin”.

For daptomycin, the “effect of antibiotic on UptA:C55-P complex (in words)” value in the experiment on UptA:C55-P complex is “does not directly compete against C55-P binding to the protein; also recorded: modest impact”. The “binding of antibiotic to UptA (in words)” value on UptA was “daptomycin interacts with UptA”. The “complex formation with or sequestration of lipid II (in words)” value in experiment [3] is reported as “complexing with lipid II”.

These data come from article PMC11474028, “Lipopeptide antibiotics disrupt interactions of undecaprenyl phosphate with UptA” (Proceedings of the National Academy of Sciences of the …, 2024).
